{
  "source": "paper PMC2691587",
  "about": "(Journal of medicinal chemistry, 2009)",
  "key": {"[1]": {"tested_on": "SIRT2", "settings": "read-out: SIRT2 IC50 (previously reported); in vitro; cited from earlier work"}, "[2]": {"tested_on": "SIRT1", "settings": "read-out: SIRT1 IC50 (previously reported); in vitro; cited from earlier work"}, "[3]": {"tested_on": "MCF-7 breast adenocarcinoma cells", "assay": "Western blot of p53 and K382-acetylated p53 levels in MCF-7 cells", "format": "cell-based, human"}, "[4]": {"tested_on": "NCI H460 cancer cells", "settings": "in the presence of etoposide (10 μM); cited from earlier work"}, "[5]": {"tested_on": "H1299 cells", "assay": "Western blot of K40-acetylated α-tubulin levels in H1299 cells", "format": "cell-based, human"}, "[6]": {"molecular_target": "T1, human recombinant SIRT1 (Homo sapiens, UniProt Q96EB6)", "T1 sequence (Q96EB6 1-747)": "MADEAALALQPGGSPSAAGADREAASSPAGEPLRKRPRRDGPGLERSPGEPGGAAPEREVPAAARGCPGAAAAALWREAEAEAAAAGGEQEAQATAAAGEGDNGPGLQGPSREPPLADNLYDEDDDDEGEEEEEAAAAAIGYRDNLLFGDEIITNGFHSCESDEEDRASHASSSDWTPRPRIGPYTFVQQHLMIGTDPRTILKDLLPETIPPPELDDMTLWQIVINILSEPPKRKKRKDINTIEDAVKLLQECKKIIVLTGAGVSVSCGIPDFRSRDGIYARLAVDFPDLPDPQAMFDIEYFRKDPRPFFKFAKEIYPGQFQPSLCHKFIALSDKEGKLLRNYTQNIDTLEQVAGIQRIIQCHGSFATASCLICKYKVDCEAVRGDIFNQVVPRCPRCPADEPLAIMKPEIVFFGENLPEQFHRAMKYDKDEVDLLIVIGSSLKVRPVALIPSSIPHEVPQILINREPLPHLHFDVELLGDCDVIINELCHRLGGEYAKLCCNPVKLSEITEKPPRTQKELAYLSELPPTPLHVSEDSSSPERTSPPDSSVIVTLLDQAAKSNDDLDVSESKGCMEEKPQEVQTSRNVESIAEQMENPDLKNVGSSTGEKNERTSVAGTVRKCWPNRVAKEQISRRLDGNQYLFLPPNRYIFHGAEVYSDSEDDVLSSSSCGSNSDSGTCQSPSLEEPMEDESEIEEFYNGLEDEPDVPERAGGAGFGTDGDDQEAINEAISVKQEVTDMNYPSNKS", "assay": "SIRT1 inhibition, Fluor de Lys fluorescence-based assay", "format": "biochemical", "settings": "ratio of IC50 values versus 1"}},
  "data": [
    {"smiles": "O=c1[nH]c(=S)[nH]c(-c2ccccc2)c1Cc1c(O)ccc2ccccc12", "note": "[compound 1, 6-Phenyl-5-[2″-hydroxynaphthyl-(1″)-methyl]-2-thioxo-2,3-dihydro-1H-pyrimidin-4-one]", "values": [
      {"measurement": "IC50", "setting": "[1]", "result": 59, "unit": "µM"},
      {"measurement": "IC50", "setting": "[2]", "result": 56, "unit": "µM"},
      {"measurement": "levels of p53 and acetylated p53", "setting": "[3]; MCF-7, in the presence of etoposide (10 μM), 200 μM compound", "result": "decreased again"},
      {"measurement": "levels of p53 and Lys382 acetylated p53", "setting": "[3]; MCF-7, in the presence of etoposide (10 μM), 20 and 50 μM compound, 6 h", "result": "increased"},
      {"measurement": "levels of p53 and acetylated p53", "setting": "[4]", "result": "increased levels of p53 and acetylated p53"},
      {"measurement": "levels of acetylated α-tubulin", "setting": "[5]; H1299 cells, with 40 nM trichostatin A, 24 h", "result": "did lead to an increase in levels of acetylated tubulin"}
    ]},
    {"smiles": "O=c1[nH]c(=S)[nH]c(-c2ccc(Br)cc2)c1Cc1c(O)ccc2ccccc12", "note": "[6b, 6-(4′-Bromophenyl)-5-[2″-hydroxynaphthyl-(1″)-methyl]-2-thioxo-2,3-dihydro-1H-pyrimidin-4-one]", "values": [
      {"measurement": "levels of p53", "setting": "[3]; MCF-7, compound alone, in the absence of etoposide, different concentrations", "result": "did not increase the levels of p53"},
      {"measurement": "improvement in activity (IC50) against SIRT1 compared to 1", "setting": "[6]", "result": 3, "unit": "fold"},
      {"measurement": "levels of acetylated α-tubulin", "setting": "[5]; Figure S13, cell line not given", "result": "did not lead to an increase in the levels of acetylated α-tubulin"}
    ]},
    {"smiles": "CCCCn1c(-c2ccccc2)c(Cc2c(O)ccc3ccccc23)c(=O)[nH]c1=S", "note": "[6j, 6-Phenyl-5-[2″-hydroxynaphthalyl-(1″)-methyl]-1-butyl-2-thioxo-2,3-dihydro-1H-pyrimidin-4-one]", "values": [
      {"measurement": "levels of acetylated α-tubulin compared to the effect of 1", "setting": "[5]; H1299 cells, with trichostatin A, concentration range 10–50 μM", "result": "an increase in the levels of acetylated α-tubulin was achieved"},
      {"measurement": "toxicity in cells", "setting": "[5]; concentrations higher than 10–50 μM", "result": "toxicity"}
    ]}
  ]
}
